Results on 2 compounds are retold here after patent publication US20250312311A1, “Low Dose Fipronil Deer Feed” (priority 2024, published 2025).

Experiment [1] concerns I. scapularis larvae. Conditions: larvae parasitizing P. leucopus; Poché et al. 2021; cited from earlier work.
The subject of the next experiment is Amblyomma americanum. As to the kind of experiment: Pen study: FDF efficacy against Amblyomma americanum parasitizing white-tailed deer (tick capsules, 8-day post-attachment). The format is in vivo. Conditions: Cp 13.5 ppb; the tick was A. americanum.
In experiment [2] the test system is I. scapularis larvae. Particulars: larvae parasitizing Peromyscus maniculatus; Pelletier et al. 2020; cited from earlier work.

As to `N#Cc1nn(-c2c(Cl)cc(C(F)(F)F)cc2Cl)c(N)c1S(=O)(=O)C(F)(F)F` [fipronil sulfone], the “Cp determined to control 100% I. scapularis larvae” value in the experiment on I. scapularis larvae [1] is listed as ≥ 8.8 ppb. In addition, the “live female ticks collected in total from a deer having Cp at 13.5 ppb” value with Amblyomma americanum is “one”.
Turning to `Cc1cc(C2=NOC(c3cc(Cl)cc(Cl)c3)(C(F)(F)F)C2)ccc1C(=O)NCC(=O)NCC(F)(F)F` (stereo not shown) [fluralaner], in the experiment on I. scapularis larvae [2], the “concentration in plasma required to control 94% I. scapularis larvae” value is recorded as 4000 ppb and the “concentration in plasma required to control 97% I. scapularis larvae” value is listed as 13000 ppb.
